In BindingDB's records for doi:10.1016/j.bmc.2019.115177 (National Centre For Scientific Research "Demokritos, 2019):

Experiments:
[1] = molecular target: Insulin-regulated aminopeptidase (Homo sapiens); assay: Competitive inhibition of human recombinant IRAP expressed in baculovirus infected sf9 cells using L-AMC as substrate incubated for 5 to 10 mins by Michaelis-Menten analysis
[2] = molecular target: Insulin-regulated aminopeptidase (Homo sapiens); assay: Inhibition of human recombinant IRAP expressed in baculovirus infected Sf9 cells using omniMMP fluorogenic substrate incubated for 5 to 10 mins by fluorescence spectrophotometry analysis

Ki [1]	IC50 [2]	Structure (SMILES)
3.8 µM	7.2 µM	CCCC[C@H](N)C(=O)NNc1cccc(C(=O)N[C@@H](Cc2c[nH]c3ccccc23)C(=O)OCc2ccccc2)c1
–	> 10 µM	CCCC[C@H](N)C(=O)Nc1ccc(C(=O)N[C@@H](Cc2c[nH]c3ccccc23)C(=O)OCc2ccccc2)cc1
4.6 µM	8.8 µM	CCCC[C@H](N)C(=O)Nc1cc(C(=O)N[C@@H](Cc2c[nH]c3ccccc23)C(=O)OCc2ccccc2)ccn1
3.2 µM	6.2 µM	CCCC[C@H](N)C(=O)Nc1cccc(C(=O)N[C@@H](Cc2c[nH]c3ccccc23)C(=O)OCc2ccccc2)c1

Further lines, the compound ahead of its results:

Structure (SMILES)	Ki [1]	IC50 [2]
N[C@@H](CCc1ccccc1)C(=O)NNc1ccc(C(=O)N[C@@H](Cc2c[nH]c3ccccc23)C(=O)OCc2ccccc2)cc1	–	2.5 µM
O=C(Cn1cccc(O)c1=O)NCCc1ccc(-c2ccccc2)cc1	13 µM	24.8 µM
CC(C)[C@H](NC(=O)Cn1cccc(O)c1=O)C(=O)OCc1ccccc1	17.6 µM	33.6 µM
O=C(Cn1cccc(O)c1=O)N[C@@H](Cc1c[nH]c2ccccc12)C(=O)OCc1ccccc1	5.7 µM	10.9 µM
COc1cccn(CC(=O)NCCc2ccc(-c3ccccc3)cc2)c1=S	8.7 µM	16.7 µM
CCCC[C@H](N)C(=O)NNc1ccc(C(=O)N[C@@H](Cc2c[nH]c3ccccc23)C(=O)OCc2ccccc2)cc1	1.3 µM	2.5 µM
